Measured values as given in patent publication US20130310379A1, “MODULATORS OF METHYL MODIFYING ENZYMES, COMPOSITIONS AND USES THEREOF” (CONSTELLATION PHARMACEUTICALS, priority 2010, published 2013).

Assays:
EZH2 = EZH2 (Homo sapiens, UniProt Q15910); assay: EZH2 assay: rPRC2 with biotinylated oligonucleosome substrates and 3H SAM, FlashPlate scintillation counting, IC50; format: biochemical; conditions: rPRC2, biotinylated oligonucleosome substrates, 3H SAM; read-out: EZH2 IC50
In short: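 rPRC2 (2 nM EZH2) pre-incubated 20 min with compound (80 to 0.16 uM, ten 2-fold steps), then 60 min reaction with 0.2 uM 3H SAM, 0.2 uM biotinylated oligonucleosomes, 3.6 uM H3K27me3 peptide in Tris pH 8.5. SAH/EDTA quench; 4-parameter IC50 fit.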

Y641N EZH2 = Y641N EZH2 (Homo sapiens, UniProt Q15910, Y641N); assay: Y641N EZH2 assay: performed as the EZH2 assay, using reconstituted H3K27Me2 oligonucleosomes as substrate; format: biochemical
Method: Assays were carried out by mixing rPRC2 together with biotinylated oligonucleosome substrates in the presence of the radio-labeled enzyme co-factor, S-adenosyl-L-methionine (^3H SAM) (Perkin Elmer) and monitoring the enzymatically mediated transfer of tritiated methyl groups from ^3H SAM to histone lysine residues. The amount of resulting tritated methylhistone product was measured by first capturing the biotinylated oligonuclesomes in streptavidin (SAV) coated FlashPlates (Perkin Elmer), followed by a wash step to remove un-reacted ^3H SAM, and then counting on a TopCount NXT 384 well plate scintillation counter (Perkin Elmer). The final assay conditions for EZH2 were as follows: 50 mM Tris Buffer pH 8.5, 1 mM DTT, 69 uM Brij-35 detergent, 5.0 mM MgCl2, 0.1 mg/mL BSA, 0.2 uM ^3H SAM, 0.2 uM biotinylated oligonucleosomes, 3.6 uM H3K27me3 peptide and 2 nM EZH2.
Compound IC50 measurements were obtained as follows: Compounds were first dissolved in 100% DMSO as 10 mM stock solutions. […] A 12.5 uL volume of the HMT enzyme, H3K27me3 peptide and oligonucleosome substrate in assay buffer was added to each well of the assay plate using a Multidrop Combi (ThermoFisher). Compounds were pre-incubated with the enzyme for 20 min, followed by initiation of the methyltransferase reaction by addition of 12.5 uL of 3H SAM in assay buffer (final volume=25 uL). The final concentrations of compounds ranged from a top default concentration of 80 uM down to 0.16 uM in ten 2-fold dilution steps. Reactions were carried out for 60 minutes and quenched with 20 uL per well of 1.96 mM SAH, 50 mM Tris PH 8.5, 200 mM EDTA. Stopped reactions were transferred to SAV coated Flashplates (Perkin Elmer), incubated for 120 min, washed with a plate washer, and then read on the TopCount NXT (1.0 min/well) to measure the amount of methylhistone product formed during the reaction. The amount of methylhistone product was compared with the amount of product formed in the 0% and 100% inhibition control wells allowing the calculation of % Inhibition in the presence of the individual compounds at various concentrations. IC50's were computed using a 4 parameter fit non-linear curve fitting software package (XLFIT, part of the database package, ActivityBase (IDBS)) where the four parameters were IC50, Hill slope, pre-transitional baseline (0% INH), and post-transitional baseline (100% INH); with the latter two parameters being fixed to zero and 100%, respectively, by default.

Sequence of EZH2 (Q15910 whole entry): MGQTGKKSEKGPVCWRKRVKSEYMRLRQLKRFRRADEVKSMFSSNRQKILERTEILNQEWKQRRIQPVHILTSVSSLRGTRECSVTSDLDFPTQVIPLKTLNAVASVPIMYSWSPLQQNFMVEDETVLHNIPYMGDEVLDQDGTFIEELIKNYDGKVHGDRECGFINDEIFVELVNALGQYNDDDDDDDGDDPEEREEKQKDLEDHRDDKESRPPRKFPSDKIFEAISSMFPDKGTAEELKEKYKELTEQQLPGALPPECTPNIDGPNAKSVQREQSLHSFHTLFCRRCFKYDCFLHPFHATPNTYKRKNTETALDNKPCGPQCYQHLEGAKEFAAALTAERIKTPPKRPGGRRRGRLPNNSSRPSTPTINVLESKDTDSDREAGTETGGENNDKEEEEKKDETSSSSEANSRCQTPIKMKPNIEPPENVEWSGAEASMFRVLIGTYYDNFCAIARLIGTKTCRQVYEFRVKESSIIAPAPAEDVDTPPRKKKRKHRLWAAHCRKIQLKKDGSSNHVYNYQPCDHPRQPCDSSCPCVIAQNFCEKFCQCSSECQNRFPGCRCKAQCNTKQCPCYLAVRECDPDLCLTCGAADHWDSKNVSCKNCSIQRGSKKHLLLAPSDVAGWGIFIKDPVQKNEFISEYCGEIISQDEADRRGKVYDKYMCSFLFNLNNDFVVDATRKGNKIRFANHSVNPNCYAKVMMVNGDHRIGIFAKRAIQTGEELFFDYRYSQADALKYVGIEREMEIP
Sequence of EZH2 (O75530 whole entry partner): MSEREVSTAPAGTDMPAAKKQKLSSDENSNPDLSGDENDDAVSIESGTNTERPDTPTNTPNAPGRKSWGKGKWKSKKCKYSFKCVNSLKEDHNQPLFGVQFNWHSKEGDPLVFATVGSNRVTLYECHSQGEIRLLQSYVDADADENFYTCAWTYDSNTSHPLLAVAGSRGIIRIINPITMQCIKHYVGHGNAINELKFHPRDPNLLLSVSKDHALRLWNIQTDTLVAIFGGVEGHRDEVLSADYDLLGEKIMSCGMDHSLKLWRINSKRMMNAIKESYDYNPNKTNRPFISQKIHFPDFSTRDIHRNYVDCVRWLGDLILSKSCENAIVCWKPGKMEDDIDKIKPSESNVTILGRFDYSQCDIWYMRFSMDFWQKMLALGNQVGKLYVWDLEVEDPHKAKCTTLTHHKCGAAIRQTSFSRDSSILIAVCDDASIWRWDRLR
Sequence of EZH2 (Q15022 whole entry partner): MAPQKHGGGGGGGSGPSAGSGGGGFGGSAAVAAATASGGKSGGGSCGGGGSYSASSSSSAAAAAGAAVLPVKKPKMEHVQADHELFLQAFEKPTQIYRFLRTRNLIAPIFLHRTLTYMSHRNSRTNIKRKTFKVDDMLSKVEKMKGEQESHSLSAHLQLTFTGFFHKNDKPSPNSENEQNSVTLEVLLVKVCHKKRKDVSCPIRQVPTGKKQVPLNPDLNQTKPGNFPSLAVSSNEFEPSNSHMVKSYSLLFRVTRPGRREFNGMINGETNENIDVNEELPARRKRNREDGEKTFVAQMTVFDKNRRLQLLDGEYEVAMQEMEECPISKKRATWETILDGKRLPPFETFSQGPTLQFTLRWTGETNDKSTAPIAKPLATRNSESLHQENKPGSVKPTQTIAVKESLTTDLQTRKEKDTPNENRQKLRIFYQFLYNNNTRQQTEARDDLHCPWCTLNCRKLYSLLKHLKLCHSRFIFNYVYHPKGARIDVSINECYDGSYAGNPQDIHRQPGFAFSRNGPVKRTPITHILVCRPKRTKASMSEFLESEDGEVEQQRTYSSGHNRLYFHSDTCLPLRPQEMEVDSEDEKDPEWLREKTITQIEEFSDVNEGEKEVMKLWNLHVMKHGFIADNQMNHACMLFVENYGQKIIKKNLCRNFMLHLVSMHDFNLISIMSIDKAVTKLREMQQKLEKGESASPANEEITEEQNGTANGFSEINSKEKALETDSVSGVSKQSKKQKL
Sequence of Y641N EZH2 (Q15910 whole entry Y641N): as the sequence (Q15910 whole entry) above, with Y641N counted along it
Sequence of Y641N EZH2 (O75530 whole entry partner): as the sequence (O75530 whole entry partner) above
Sequence of Y641N EZH2 (Q15022 whole entry partner): as the sequence (Q15022 whole entry partner) above

SMILES	IC50 (EZH2) [µM]	IC50 (Y641N EZH2) [µM]
CN(C)c1ccc(-c2cccc(OCc3ccc(C(=O)NC4CC(C)(C)NC(C)(C)C4)cc3)c2)cn1 [Compound I-154]	20 to 80	20 to 80
CC1(C)CC(N2CCc3cc(Oc4ccccc4C#N)c(Cl)cc3C2=O)CC(C)(C)N1 [Compound I-163]	20 to 80	> 80
CC(=O)Nc1ccc(-c2cccc(OCc3ccc(C(=O)NC4CC(C)(C)NC(C)(C)C4)cc3)c2)cc1 [Compound I-167]	20 to 80	20 to 80
CC1(C)CC(NC(=O)c2ccc(C#Cc3ccccc3)cc2)CC(C)(C)N1 [Compound I-173]	5 to 20	5 to 20
CC1(C)CC(NC(=O)c2ccc(COc3cccc(-c4ccc5[nH]ccc5c4)c3)cc2)CC(C)(C)N1 [Compound I-183]	20 to 80	20 to 80
CC1(C)CC(NC(=O)c2ccc(COc3ccccc3Br)cc2)CC(C)(C)N1 [Compound I-185]	20 to 80	> 80
CC1(C)CC(NC(=O)c2ccc(COc3cccc(Br)c3)c(Br)c2)CC(C)(C)N1 [Compound I-216]	5 to 20	20 to 80
CC1(C)CC(NC(=O)c2ccc(-n3ncc4c(Br)cccc43)c(Cl)c2)CC(C)(C)N1 [Compound I-490]	5 to 20	–
CC1(C)CC(NC(=O)c2ccc(Oc3ccccc3C#N)c(Cl)c2)CC(=O)N1 (stereo not shown) [Compound I-491]	> 80	–
CC1(C)CC(NC(=O)c2ccc(-n3ccc4cc(O)ccc43)c(Cl)c2)CC(C)(C)N1 [Compound I-494]	20 to 80	–
CC1(C)CC(NC(=O)c2ccc(-n3cccn3)c(Cl)c2)CC(C)(C)N1 [Compound I-496]	> 80	–
CC1(C)CC(NC(=O)c2ccc(N3CCc4cccc(O)c4C3=O)c(Cl)c2)CC(C)(C)N1 [Compound I-498]	5 to 20	–
CC1(C)CC(NC(=O)c2ccc(Oc3ccccc3C#N)c(Cl)c2)CCN1 (stereo not shown) [Compound I-503]	5 to 20	–
CC1(C)CC(C)(NC(=O)c2ccc(Oc3cccc(-c4ccnnc4)c3C#N)c(Cl)c2)CC(C)(C)N1 [Compound I-507]	20 to 80	–
CC1(C)CC(NC(=O)c2ccc(Oc3cccc(-c4ccnnc4)c3C#N)c(Cl)c2)CC(C)(C)S1 [Compound I-517]	5 to 20	–
CC1(C)CC(NC(=O)c2ccc(Oc3cccc(-c4ccnnc4)c3C#N)c(Cl)c2)CC(C)(C)[S+]1[O-] (stereo not shown) [Compound I-518]	20 to 80	–
CC1(C)CC(NC(=O)c2ccc(Oc3cccc(-c4ccnnc4)c3C#N)c(Cl)c2)CC(=O)N1 (stereo not shown) [Compound I-519]	20 to 80	–
CC1(C)CC(NC(=O)c2ccc(N3C(=O)COc4ccccc43)c(Cl)c2)CC(C)(C)N1 [Compound I-522]	20 to 80	–
CC1(C)CC(NC(=O)c2ccc(Oc3cccc4c3C(=O)NCC4)c(Cl)c2)CC(C)(C)N1 [Compound I-525]	5 to 20	–

SMILES	IC50 (EZH2) [µM]	IC50 (Y641N EZH2) [µM]
CC1(C)CC(NC(=O)c2ccc(Oc3cccc(C4CCOC4)c3C#N)c(Cl)c2)CC(C)(C)N1 (stereo not shown) [Compound I-530]	< 5	–
CC1(C)CC(NC(=O)c2ccc(Oc3cccc(C4CCOCC4)c3C#N)c(Cl)c2)CC(C)(C)N1 [Compound I-531]	< 5	–
CC1(C)CC(NC(=O)c2ccc(Oc3cccc(C4CCNCC4)c3C#N)cc2)CC(C)(C)N1 [Compound I-534]	< 5	–
CC1(C)CC(NC(=O)c2ccc(Oc3cccc(C4CCNCC4)c3C#N)c(Cl)c2)CC(C)(C)N1 [Compound I-535]	< 5	–
CC(=O)N1CCC(c2cccc(Oc3ccc(C(=O)NC4CC(C)(C)NC(C)(C)C4)cc3Cl)c2C#N)CC1 [Compound I-537]	< 5	–
CC1(C)CC(NC(=O)c2ccc(Oc3cccc(-c4cnc(N)nc4)c3C#N)c(Cl)c2)CC(C)(C)N1 [Compound I-538]	< 5	–
CC1(C)CC(NC(=O)c2ccc(Oc3cccc(-c4ccc(N5CCNCC5)nc4)c3C#N)c(Cl)c2)CC(C)(C)N1 [Compound I-549]	< 5	–
CN1CCN(c2ccc(-c3cccc(Oc4ccc(C(=O)NC5CC(C)(C)NC(C)(C)C5)cc4Cl)c3C#N)cn2)CC1 [Compound I-550]	< 5	–
CNC(=O)CCc1cccc(Oc2ccc(C(=O)NC3CC(C)(C)NC(C)(C)C3)cc2Cl)c1C#N [Compound I-551]	< 5	–
CN(C)C(=O)CCc1cccc(Oc2ccc(C(=O)NC3CC(C)(C)NC(C)(C)C3)cc2Cl)c1C#N [Compound I-552]	< 5	–
CC1(C)CC(NC(=O)c2ccc(Oc3cccc(CCC(=O)N4CCCC4)c3C#N)c(Cl)c2)CC(C)(C)N1 [Compound I-553]	< 5	–
COCCNC(=O)CCc1cccc(Oc2ccc(C(=O)NC3CC(C)(C)NC(C)(C)C3)cc2Cl)c1C#N [Compound I-554]	< 5	–
CN1CCN(C(=O)CCc2cccc(Oc3ccc(C(=O)NC4CC(C)(C)NC(C)(C)C4)cc3Cl)c2C#N)CC1 [Compound I-555]	< 5	–
CN(C)c1ccc(-c2cccc(Oc3ccc(C(=O)NC4CC(C)(C)NC(C)(C)C4)cc3Cl)c2C#N)cn1 [Compound I-557]	< 5	–
CC(Cc1cccc(Oc2ccc(C(=O)NC3CC(C)(C)NC(C)(C)C3)cc2Cl)c1C#N)C(N)=O (stereo not shown) [Compound I-559]	< 5	–
CC1(C)CC(NC(=O)c2ccc(Oc3cccc(C4CCCN4)c3C#N)c(Cl)c2)CC(C)(C)N1 (stereo not shown) [Compound I-562]	< 5	–
CNC(=O)CC1(NC(=O)c2ccc(Oc3cccc(-c4ccnnc4)c3C#N)c(Cl)c2)CC(C)(C)NC(C)(C)C1 [Compound I-570]	> 80	–
CC(=O)Nc1ccc(-c2cccc(OCc3ccc(C(=O)NC4CC(C)(C)NC(C)(C)C4)cc3)c2)cn1 [Compound I-593]	< 5	–

Second part, the compound after the results:

IC50 (EZH2) [µM]	IC50 (Y641N EZH2) [µM]	SMILES
< 5	20 to 80	CC1(C)CC(NC(=O)c2ccc(Oc3cccc4cnccc34)cc2)CC(C)(C)N1 [Compound I-171]
< 5	5 to 20	CC1(C)CC(NC(=O)c2ccc(Oc3ccccc3C#N)c(Br)c2)CC(C)(C)N1 [Compound I-186]
< 5	5 to 20	CC1(C)CC(NC(=O)c2ccc(Oc3ccccc3C#N)c(CCc3ccccc3)c2)CC(C)(C)N1 [Compound I-199]
< 5	20 to 80	CC1(C)CC(NC(=O)c2ccc(Oc3ccccc3-c3cccnc3)c(Cl)c2)CC(C)(C)N1 [Compound I-207]
< 5	20 to 80	CC1(C)CC(NC(=O)c2ccc(Oc3ccccc3C#N)c(F)c2)CC(C)(C)N1 [Compound I-217]
< 5	–	CC1(C)CC(NC(=O)c2ccc(Oc3ccccc3C#N)c(Cl)c2)CC(C)(C)N1CCCO [Compound I-489, 3-chloro-4-(2-cyanophenoxy)-N-(1-(3-hydroxypropyl)-2,2,6,6-tetramethylpiperidin-4-yl)benzamide]
< 5	–	CC1(C)CC(NC(=O)c2ccc(-n3ccc4c(O)cccc43)c(Cl)c2)CC(C)(C)N1 [Compound I-492]
< 5	–	COc1cc(-c2cccc(Oc3ccc(C(=O)NC4CC(C)(C)NC(C)(C)C4)cc3Cl)c2C#N)ccn1 [Compound I-500]
< 5	–	CC1(C)CC(NC(=O)c2ccc(Oc3cccc(CCC(N)=O)c3C#N)c(Cl)c2)CC(C)(C)N1 [Compound I-501]
< 5	–	CC1(C)CC(NC(=O)c2ccc(Oc3cccc(NCC(N)=O)c3C#N)c(Cl)c2)CC(C)(C)N1 [Compound I-502]
< 5	–	CC1(C)CC(NC(=O)c2ccc(Oc3cccc(-c4cccc(C#N)c4)c3C#N)c(Cl)c2)CC(C)(C)N1 [Compound I-505]
< 5	–	CC1(C)CC(NC(=O)c2ccc(Oc3cccc(-c4ccc(C#N)cc4)c3C#N)c(Cl)c2)CC(C)(C)N1 [Compound I-506]
< 5	–	Cc1cc(C(=O)NC2CC(C)(C)NC(C)(C)C2)ccc1Oc1cccc(-c2ccnnc2)c1C#N [Compound I-508]
< 5	–	CC1(C)CC(NC(=O)c2ccc(Oc3cncc(-c4ccncc4)c3C#N)c(Cl)c2)CC(C)(C)N1 [Compound I-520]
< 5	–	CC1(C)CC(NC(=O)c2ccc(Oc3cccc(-c4ccc(C#N)nc4)c3C#N)c(Cl)c2)CC(C)(C)N1 [Compound I-526]
< 5	–	CC1(C)CC(NC(=O)c2ccc(Oc3cccc(-c4ccc(C(N)=O)nc4)c3C#N)c(Cl)c2)CC(C)(C)N1 [Compound I-527]
< 5	–	CC1(C)CC(NC(=O)c2ccc(Oc3cccc(-c4cncc(F)c4)c3C#N)c(Cl)c2)CC(C)(C)N1 [Compound I-528]
< 5	–	CC1(C)CC(NC(=O)c2ccc(Oc3cccc(C4=CCOCC4)c3C#N)c(Cl)c2)CC(C)(C)N1 [Compound I-529]
